Assay results reported in patent US20250333394A1, “Tiparp Inhibitor Compounds” (AbbVie Inc., priority 2024, published 2025).
Read-outs that look alike come from different tables or passages of the source.

Legend:
NCI-H1373 cells = test: NCI-H1373 CellTiter-Glo cell assay for TIPARP inhibition; type: cell-based, human; conditions: 6 days, 100 nM 10-Cl-BBQ in medium, read-out: NCI-H1373 CTG EC50
Procedure: The NCI-H1373 CellTiter-Glo® assay was used to determine cell numbers after TIPARP inhibition-induced cell cycle arrest, and enabled screening of compounds for cellular TIPARP inhibition potency.
Compound stock solutions (10 mM) were serially diluted in 3-fold increments in dimethyl sulfoxide. Sample aliquots (120 nL) were dispensed into Corning® 384-well Flat Clear Bottom White Polystyrene TC-treated Microplates (Corning Life Sciences, Corning, NY, USA) using an ECHO® 550 acoustic Labcyte dispenser (Beckman-Coulter Life Sciences, Indianapolis, IN, USA) to achieve final concentrations between 30 μM and 0.5 nM in the assay. This was followed by the addition of 40 μL of 1000 NCI-H1373 cells (ATCC®, Manassas, VA, USA) in complete growth medium RPMI 1640 growth medium (Thermo Fisher Scientific, Waltham, MA, USA) supplemented with 20 mg/L L-glutamate, 25 mM HEPES (4-(2-hydroxyethyl)-1-piperazineethanesulfonic acid), 10% (v/v) heat inactivated FBS (fetal bovine serum), 1% (w/v) penicillin-streptomycin, and 100 nM 10-Cl-BBQ (10-chloro-7H-benzimidazo[2,1-a]benz[de]isoquinolin-7-one, (Tocris, Minneapolis, MN, USA). Duplicate cell plates with 40 μL cells/well along with various concentrations of compounds were kept in Nunc™ Square BioAssay Dishes (Thermo Fisher Scientific) at 98% relative humidity in a 5% C02 incubator at 37° C. for 6 days. On day 7, plates were moved to ambient lab conditions for 10 minutes until the temperature equilibrated. Following equilibration, CellTiter-Glo® Luminescent Cell Viability Assay reagent (Promega™, Madison, WI, USA) was added (15 μL) to each well of the plates. After a 20 minutes incubation, luminescence was detected using a ViewLux™ microplate imager (PerkinElmer, Waltham, MA, USA). Data analysis was performed using GraphPad Prism (Dotmatics, Boston, MA, USA).

DLD-1 BRCA2 (−/−) cells = test: CellTiter-Glo DLD-1 BRCA2 (−/−) cell assay for PARP1/2 inhibition; type: cell-based; conditions: 6 days, read-out: DLD-1 BRCA2 (−/−) CTG EC50
Excerpt: (§1) The DLD-1 BRCA2 (−/−) CellTiter-Glo® assay measured the synthetic lethality of PARP1/2 inhibitors and was used as a surrogate to allow measurement of activity of both PARP1 and PARP2 in cells. If PARP1 and PARP2 are inhibited and are trapped onto chromatin during DNA replication, there is replication fork stalling and accumulation of double strand breaks. In BR CA wild-type cells, the resulting double strand DNA breaks are repaired via homologous recombination. In cells with mutation of BRCA1 or BRCA2, homologous recombination repair of DNA double strand breaks is defective, and cell death occurs after PARP1/2 inhibitor treatment (Lord C J, Ashworth A. PARP inhibitors: synthetic lethality in the clinic. Science. 2017 Mar. 17; 355(6330):1152-1158). Testing compounds in viability assays with the DLD-1-BR CA 2 (−/−) and DLD-1 parent cell enabled assessment on PARP1/2-dependent (cytotoxicity in the BRCA2 (−/−) cells only) vs. non-selective cytotoxicity in both cell lines.
(§2) Compound stock solutions (10 mM) were serially diluted in 3-fold increments in dimethyl sulfoxide (DMSO). Sample aliquots (120 nL) were dispensed into Corning® 384-well Flat Clear Bottom White Polystyrene TC-treated Microplates (Corning Life Sciences, Corning, NY, USA) using an ECHO® 550 acoustic Labcyte dispenser (Beckman-Coulter Life Sciences, Indianapolis, IN, USA) to achieve concentrations between 30 μM and 0.5 nM in the assay. In the assay, 40 μL of 500 DLD-1 parent cells (HORIZON® Therapeutics, Deerfield, IL, USA) or 40 μL of 1200 DLD-1-BRCA2 (−/−) cells (HORIZON Therapeutics) in complete growth medium containing RPMI 1640 growth medium (ThermoFisher Scientific, Waltham, MA, USA) supplemented with 20 mg/L L-glutamate, 25 mM HEPES (4-(2-hydroxyethyl)-1-piperazineethanesulfonic acid), 10% (v/v) heat inactivated FBS (fetal bovine serum), and 1% (w/v) Penicillin-Streptomycin were added.
(§3) Duplicate cell plates with 40 μL cells/well along with various concentrations of compounds were kept in Nunc™ Square BioAssay Dishes (Thermo Fisher Scientific) at 98% relative humidity in a 5% CO2 incubator at 37° C. for 6 days. On day 7, plates were moved to ambient lab conditions for 10 minutes until the temperature equilibrated. Following equilibration, CellTiter-Glo® Luminescent Cell Viability Assay reagent (Promega™, Madison, WI, USA) was added (15 μL) to each well of the plates. After a 20 minutes incubation, luminescence was detected using a ViewLux™ microplate imager (PerkinElmer, Waltham, MA, USA). Data analysis was performed using GraphPad Prism (Dotmatics, Boston, MA, USA).

TIPARP GST-(TEV) = TIPARP GST-(TEV) (Homo sapiens (Human), UniProt Q7Z3E1); test: TR-FRET binding assay, TIPARP; conditions: for IC50: TR-FRET, Probe 1, 2 hours incubation; for PARP1/TIPARP IC50 Ratio: ratio of PARP1 GST IC50 to TIPARP GST-(TEV) IC50
Excerpt: The full-length cDNA encoding the human TIPARP (NP_001171647.1, UniProtKB-Q7Z3E1) of 657 amino acids was the template to generate the expression construct. […] The TIPARP fusion protein includes GST, glutathione S-transferase, a 26 kDa protein whose DNA sequence is frequently integrated into expression vectors for production of recombinant proteins. A […], was cloned into vector pFastBacTM 1 (Thermo Fisher Scientific) with an N-terminal GST tag followed by a TEV protease site to produce the TIPARP fusion protein, TIPARP GST-(TEV). TR-FRET assays were used to measure the binding of compounds to TIPARP and PARP1, and to characterize biochemical selectivity. Compound stock solutions (10 mM) were serially diluted in 3-fold increments in dimethyl sulfoxide (DMSO). Diluted compounds were dispensed (30 nL) into white ProxiPlate-384-well plates (PerkinElmer, Waltham, MA, USA) using an ECHO® 550 acoustic Labcyte dispenser (Beckman-Coulter Life Sciences, Indianapolis, IN, USA) to achieve a final starting concentration of 30 μM to 0.5 nM in the assay. This was followed by addition of 5 μL of 2× protein/probe mix (Table 2) made in assay buffer (Tris-HCl 50 mM pH 8.0; 5 mM MgCl2; 5 μM ZnCl2; 1 mM DTT (dithiothreitol); 0.15% BSA (bovine serum albumin) (w/v); and 0.01% TritonX-100 (w/v)) at final concentrations listed in Table 2. Subsequently, 5 μL of 2× antibody (Tb-labeled anti-GST antibody, Thermo Fisher Scientific, Waltham, MA, USA) in HEPES buffered saline was added to each well at a final concentration of 1 nM. The samples were then incubated for 2 hours under ambient conditions. Fluorescence was measured and TR-FR ET ratios were determined on an EnVision multimode plate reader (PerkinElmer) using a 520 nanometer (nm) excitation wavelength and collecting fluorescence emission at 495 nm. […] [table]

PARP1 GST = PARP1 GST (Homo sapiens (Human), UniProt P09874); test: TR-FRET binding assay, PARP1; conditions: Probe 2, 2 hours incubation
Procedure: TR-FRET assays were used to measure the binding of compounds to TIPARP and PARP1, and to characterize biochemical selectivity. Compound stock solutions (10 mM) were serially diluted in 3-fold increments in dimethyl sulfoxide (DMSO). Diluted compounds were dispensed (30 nL) into white ProxiPlate-384-well plates (PerkinElmer, Waltham, MA, USA) using an ECHO® 550 acoustic Labcyte dispenser (Beckman-Coulter Life Sciences, Indianapolis, IN, USA) to achieve a final starting concentration of 30 μM to 0.5 nM in the assay. This was followed by addition of 5 μL of 2× protein/probe mix (Table 2) made in assay buffer (Tris-HCl 50 mM pH 8.0; 5 mM MgCl2; 5 μM ZnCl2; 1 mM DTT (dithiothreitol); 0.15% BSA (bovine serum albumin) (w/v); and 0.01% TritonX-100 (w/v)) at final concentrations listed in Table 2. Subsequently, 5 μL of 2× antibody (Tb-labeled anti-GST antibody, Thermo Fisher Scientific, Waltham, MA, USA) in HEPES buffered saline was added to each well at a final concentration of 1 nM. The samples were then incubated for 2 hours under ambient conditions. Fluorescence was measured and TR-FR ET ratios were determined on an EnVision multimode plate reader (PerkinElmer) using a 520 nanometer (nm) excitation wavelength and collecting fluorescence emission at 495 nm.

DLD-1 parent cells = test: CellTiter-Glo DLD-1 parent cell assay; type: cell-based; conditions: 6 days, read-out: DLD-1 CTG EC50
Excerpt: as §1, §2, §3

Chain of TIPARP GST-(TEV) (Q7Z3E1 441-657): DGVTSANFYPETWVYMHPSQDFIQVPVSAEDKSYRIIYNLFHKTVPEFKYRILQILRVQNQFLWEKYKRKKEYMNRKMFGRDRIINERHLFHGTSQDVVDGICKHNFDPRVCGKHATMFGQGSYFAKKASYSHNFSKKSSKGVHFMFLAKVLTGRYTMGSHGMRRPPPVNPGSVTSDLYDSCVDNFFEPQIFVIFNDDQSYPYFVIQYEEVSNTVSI
Chain of PARP1 GST (P09874 whole entry): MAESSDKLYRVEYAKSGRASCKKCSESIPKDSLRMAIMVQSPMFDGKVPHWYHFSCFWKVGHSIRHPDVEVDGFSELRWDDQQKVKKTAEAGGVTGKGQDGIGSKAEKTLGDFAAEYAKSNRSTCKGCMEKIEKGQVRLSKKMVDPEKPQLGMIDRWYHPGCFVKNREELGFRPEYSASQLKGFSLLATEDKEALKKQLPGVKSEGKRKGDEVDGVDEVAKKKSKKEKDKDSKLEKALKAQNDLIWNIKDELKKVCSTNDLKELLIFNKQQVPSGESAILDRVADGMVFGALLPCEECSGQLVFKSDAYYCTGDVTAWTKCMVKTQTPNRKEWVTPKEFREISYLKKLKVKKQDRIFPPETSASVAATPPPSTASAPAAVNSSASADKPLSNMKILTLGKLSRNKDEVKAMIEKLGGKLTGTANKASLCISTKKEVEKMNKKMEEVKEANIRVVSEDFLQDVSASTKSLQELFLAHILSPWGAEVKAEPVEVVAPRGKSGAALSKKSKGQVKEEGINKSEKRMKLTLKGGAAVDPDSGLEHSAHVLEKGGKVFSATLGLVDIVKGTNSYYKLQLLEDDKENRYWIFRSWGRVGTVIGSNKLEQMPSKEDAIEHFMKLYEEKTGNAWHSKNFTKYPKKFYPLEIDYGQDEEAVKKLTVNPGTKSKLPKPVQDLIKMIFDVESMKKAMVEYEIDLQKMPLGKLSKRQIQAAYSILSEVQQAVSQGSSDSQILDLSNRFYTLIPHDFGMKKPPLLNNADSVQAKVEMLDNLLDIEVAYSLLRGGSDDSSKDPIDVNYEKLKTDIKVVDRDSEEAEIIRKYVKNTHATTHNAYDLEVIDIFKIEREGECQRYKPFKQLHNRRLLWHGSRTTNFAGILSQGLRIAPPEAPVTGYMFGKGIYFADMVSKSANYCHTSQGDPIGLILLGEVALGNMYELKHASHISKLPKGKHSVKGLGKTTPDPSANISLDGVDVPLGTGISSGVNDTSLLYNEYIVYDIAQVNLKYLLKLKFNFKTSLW

## C[C@@H]1CN(C(=O)[C@H]2C[C@@H](Cc3c[nH]c(=O)c(C(F)(F)F)c3)C2)CCN1c1ncc(C(C)(C)O)cn1 [Example 18, 5-{[(1S,3s)-3-{(3R)-4-[5-(2-hydroxypropan-2-yl)pyrimidin-2-yl]-3-methylpiperazine-1-carbonyl}cyclobutyl]methyl}-3-(trifluoromethyl)pyridin-2(1H)-one]
NCI-H1373 cells; Homo sapiens, NCI-H1373, 144 h
  EC50: 0.0667 µM
DLD-1 BRCA2 (−/−) cells; Homo sapiens, 144 h
  EC50: 1.05 µM
TIPARP GST-(TEV)
  IC50: 0.00586 µM
  PARP1/TIPARP IC50 Ratio: 149
PARP1 GST
  IC50: 0.871 µM
DLD-1 parent cells; Homo sapiens, 144 h
  EC50: 12 µM

## C[C@@H]1CN(c2ncc(C(C)(C)O)cn2)CCN1C(=O)[C@H]1C[C@@H](Cc2c[nH]c(=O)c(C(F)(F)F)c2)C1 [Example 19, 5-{[(1S,3s)-3-{(2R)-4-[5-(2-hydroxypropan-2-yl)pyrimidin-2-yl]-2-methylpiperazine-1-carbonyl}cyclobutyl]methyl}-3-(trifluoromethyl)pyridin-2(1H)-one]
NCI-H1373 cells; Homo sapiens, NCI-H1373, 144 h
  EC50: 0.0712 µM
DLD-1 BRCA2 (−/−) cells; Homo sapiens, 144 h
  EC50: 18.3 µM
TIPARP GST-(TEV)
  IC50: 0.00579 µM
  PARP1/TIPARP IC50 Ratio: 1170
PARP1 GST
  IC50: 6.75 µM
DLD-1 parent cells; Homo sapiens, 144 h
  EC50: > 30 µM

## C[C@H]1CN(C(=O)[C@H]2C[C@@H](Cc3c[nH]c(=O)c(C(F)(F)F)c3)C2)CCN1c1ncc(C(C)(C)O)cn1 [Example 20, 5-{[(1R,3s)-3-{(3S)-4-[5-(2-hydroxypropan-2-yl)pyrimidin-2-yl]-3-methylpiperazine-1-carbonyl}cyclobutyl]methyl}-3-(trifluoromethyl)pyridin-2(1H)-one]
NCI-H1373 cells; Homo sapiens, NCI-H1373, 144 h
  EC50: 0.0817 µM
DLD-1 BRCA2 (−/−) cells; Homo sapiens, 144 h
  EC50: 3 µM
TIPARP GST-(TEV)
  IC50: 0.00695 µM
  PARP1/TIPARP IC50 Ratio: 306
PARP1 GST
  IC50: 2.13 µM
DLD-1 parent cells; Homo sapiens, 144 h
  EC50: > 30 µM

## C[C@H]1CN(c2ncc(C(C)(C)O)cn2)CCN1C(=O)[C@H]1C[C@@H](Cc2c[nH]c(=O)c(C(F)(F)F)c2)C1 [Example 21, 5-{[(1R,3s)-3-{(2S)-4-[5-(2-hydroxypropan-2-yl)pyrimidin-2-yl]-2-methylpiperazine-1-carbonyl}cyclobutyl]methyl}-3-(trifluoromethyl)pyridin-2(1H)-one]
NCI-H1373 cells; Homo sapiens, NCI-H1373, 144 h
  EC50: 0.16 µM
DLD-1 BRCA2 (−/−) cells; Homo sapiens, 144 h
  EC50: 1.06 µM
TIPARP GST-(TEV)
  IC50: 0.0129 µM
  PARP1/TIPARP IC50 Ratio: 25.7
PARP1 GST
  IC50: 0.331 µM
DLD-1 parent cells; Homo sapiens, 144 h
  EC50: > 30 µM

## C[C@@H]1CN(C(=O)[C@H]2C[C@@H](Cc3c[nH]c(=O)c(C(F)(F)F)c3)C2)C[C@H](C)N1c1ncc(C(C)(C)O)cn1 [Example 22, 5-{[(1s,3s)-3-{(3R,5S)-4-[5-(2-hydroxypropan-2-yl)pyrimidin-2-yl]-3,5-dimethylpiperazine-1-carbonyl}cyclobutyl]methyl}-3-(trifluoromethyl)pyridin-2(1H)-one]
NCI-H1373 cells; Homo sapiens, NCI-H1373, 144 h
  EC50: 0.027 µM
DLD-1 BRCA2 (−/−) cells; Homo sapiens, 144 h
  EC50: 9.19 µM
TIPARP GST-(TEV)
  IC50: 0.0028 µM
  PARP1/TIPARP IC50 Ratio: 975
PARP1 GST
  IC50: 2.73 µM
DLD-1 parent cells; Homo sapiens, 144 h
  EC50: > 30 µM

## O=c1[nH]cc([C@H]2C[C@@H](C(=O)N3CCN(c4ncc(C(F)(F)F)cn4)CC3)C2)cc1C(F)(F)F [Example 23, 3-(trifluoromethyl)-5-[(1s,3s)-3-{4-[5-(trifluoromethyl)pyrimidin-2-yl]piperazine-1-carbonyl}cyclobutyl]pyridin-2(1H)-one]
NCI-H1373 cells
  EC50: 0.0442 µM
DLD-1 BRCA2 (−/−) cells
  EC50: 0.785 µM
TIPARP GST-(TEV)
  IC50: 0.00274 µM
  PARP1/TIPARP IC50 Ratio: 49.6
PARP1 GST
  IC50: 0.136 µM
DLD-1 parent cells
  EC50: 13.3 µM

## C[C@@H]1CN(C(=O)[C@H]2C[C@H](c3c[nH]c(=O)c(C(F)(F)F)c3)C2)C[C@H](C)N1c1ncc(C(F)(F)F)cn1 [Example 24, 5-[(1r,3r)-3-{(3R,5S)-3,5-dimethyl-4-[5-(trifluoromethyl)pyrimidin-2-yl]piperazine-1-carbonyl}cyclobutyl]-3-(trifluoromethyl)pyridin-2(1H)-one]
NCI-H1373 cells
  EC50: 6.49 µM
DLD-1 BRCA2 (−/−) cells
  EC50: 23.4 µM
TIPARP GST-(TEV)
  IC50: 1.87 µM
  PARP1/TIPARP IC50 Ratio: 1.65
PARP1 GST
  IC50: 3.08 µM
DLD-1 parent cells
  EC50: > 30 µM
